Assay results taken from US5227508A, “3-deoxy-3-substituted analogs of phosphatidylinositol” (Mayo Foundation for Medical Education and Research, priority 1992, dated 1993).
Read-outs that look alike come from different tables or passages of the source.

Columns and labels:
[1] = tested on: normal NIH 3T3 cells and several oncogene transformed NIH 3T3 cell lines; details: in culture; prior work (A. P. Kozikowski); cited from earlier work
[2] = tested on: v-sis oncogene-expressing NIH 3T3 cells; experiment: Cell growth inhibition, v-sis oncogene-expressing NIH 3T3 cells, 3 days; type: cell-based; details: for IC50: Mus musculus, NIH3T3, 72 h, 3 days
Experimental: (§1) Wild type NIH 3T3 cells and v-sis oncogene-expressing NIH 3T3 cells were maintained in bulk culture in DMEM with 10% heat inactivated calf serum and passaged using 0.05% trypsin and 0.5 mM EDTA. For cell growth assays, the cells were plated at a density of 5×10^3 cells in 1.6 cm diameter culture wells in 0.5 ml DMEM containing 10% heat inactivated calf serum and allowed to attach to the surface of the well for 24 hr. The medium was then replaced with fresh medium containing the myo-inositol analogues. […] Adherent cells were harvested after 3 days and were counted using an automated cell counter. Inhibition of cell growth caused by serial concentrations of analogues was expressed as a percentage of the number of nontreated cells at the end of the 3-day incubation period. Incubations were conducted in quadruplicate. The mean concentration of analogue required to cause 50% inhibition of cell growth (IC50)±S.E. was calculated from nonlinear least-squares regression analysis of the cell-proliferation concentration data (P. L. Appel et al., Cancer Chemother. Pharmacol., 17, 47 (1986)).

[3] = tested on: NIH 3T3 cells (wild type); experiment: Cell growth inhibition, wild type NIH 3T3 cells, 3 days; type: cell-based; details: for IC50: Mus musculus, NIH3T3, 72 h, 3 days
Experimental: as §1

HT-29 cells = experiment: Soft agar colony forming assay, HT-29 colon carcinoma, 7 days; type: cell-based; details: Homo sapiens, HT-29, 168 h, medium with 40 μM myo-inositol, read-out: IC50 for inhibition of colony formation
Experimental: The human colon carcinoma cell line, HT-29, was chosen as being representative of a clinically very important, slow growing and chemotherapy resistant human solid tumor. Many human colon cancer lines, including HT-29, have the v-sis oncogene (D. L. Trainer et al., Int. J. Cancer, 41, 287 (1988)). The growth of HT-29 cells was measured by colony formation in the soft agar colony forming assay over 7 days, with automated colony counting using a Omicon 3600 Image Analysis System, as described previously by M. C. Alley et al., 44, 549 (1984).
All soft-agarose cultures were performed in similar fashion. Each 35-mm culture dish contained a base layer consisting of 0.5 ml of standard DMEM culture medium (with 40 μM myo-inositol) with 0.5% agarose. On Day 0, cells in bulk culture were dissociated with trypsin and EDTA, washed once in growth medium, and subcultured by layering 1×10^4 viable cells in 0.5 ml of growth medium with 0.3% agarose over each base layer. Cultures were maintained in cell culture incubators at 37° C., 5% CO2 :95% air, and 100% relative humidity. On Day 1 (24 hr later), an upper layer of 1 ml of growth medium containing drug was applied to each culture. Cell lines formed a sufficient number of detectable colonies (>60 μm diameter) for analysis following 7 days of incubation. […]

[4] = - myo-inositol, ± S.E. of mean, read-out: v-sis NIH IC50
[5] = - myo-inositol, ± S.E. of mean, read-out: NIH IC50

IC50 (HT-29 cells) | SMILES | cell growth inhibitory activities [1] | IC50 ([2]; + myo-inositol, read-out: v-sis NIH IC50 (class symbol)) | IC50 [2, 4] | IC50 ([3]; + myo-inositol, read-out: NIH IC50 (class symbol)) | IC50 [3, 5] | IC50 ([2]; + myo-inositol, ± S.E. of mean, read-out: v-sis NIH IC50) | antagonism of growth inhibition by myo-inositol ([2]; myo-inositol at physiological concentrations, v-sis NIH 3T3) | selectivity for growth inhibition of v-sis compared to wild type NIH 3T3 cell ([2]; v-sis vs wild type NIH 3T3) | IC50 ([3]; + myo-inositol, ± S.E. of mean, read-out: NIH IC50) | antagonism of growth inhibition by myo-inositol ([3]; myo-inositol at physiological concentrations, wild type NIH 3T3) | more potent inhibitor of cell growth than the simple myo-inositol analogue ([3]; wild type NIH 3T3 cells, compared with D-3-deoxy-fluoro-myo-inositol)
– | O[C@@H]1[C@@H](O)[C@H](O)[C@@H](F)[C@@H](O)[C@H]1O [3-deoxy-3-fluoro-myo-inositol, reference compound] | exhibit cell growth inhibitory activities | > 33000 µM | 1000 µM | > 33000 µM | 7000 µM | – | – | – | – | – | –
53 ± 9 µM | CCCCCCCCCCCCCCCC(=O)OC[C@H](COP(=O)(O)O[C@H]1[C@H](O)[C@@H](O)[C@H](O)[C@@H](F)[C@H]1O)OC(=O)CCCCCCCCCCCCCCC [Compound 7, 3-Deoxy-3-fluoro-D-myo-inositol [(R)-2,3-bis(hexadecanoyloxy)propyl] hydrogen phosphate] | – | – | 107 ± 15 µM | – | 110 ± 20 µM | 81 ± 11 µM | not antagonized by myo-inositol at physiological concentrations | lost | 99 ± 13 µM | not antagonized by myo-inositol at physiological concentrations | up to 1,000 fold
